Laboratory results published in US9115122B2, “Non-ATP dependent inhibitors of extracellular signal-regulated kinase (ERK)” (UNIVERSITY OF MARYLAND, BALTIMORE, priority 2012, dated 2015).

How the values were obtained:
Assay in all cases: Cell proliferation WST-1 assay, single dose (Example 4)
Format in all cases: cell-based
Conditions in all cases: 100 μM, 48 hours
A375 melanoma cells = test system: A375 melanoma cells
Method: (§1) In addition, compounds were tested in RPMI-7951 cells, which also contain mutated BRaf and are resistant to BRaf inhibitors due to the overexpression of MAP3K8 (the gene encoding COT/Tp12) that provides an alternative mechanism to indirectly or directly activate ERK proteins. […] For comparison, HeLa cervical carcinoma and Jurkat T-cell leukemia cells, which are p53 defective cancer cell lines but contain no known activating mutations in the ERK pathway, were studied. […] Cell proliferation was evaluated by water soluble tetrazolium-1 (WST-1) assay as previously described. Briefly, cells (˜5000/well) were seeded in 96 well plates, allowed to recover for 16-20 hours, and then treated with the indicated test compound for 48 hours. After incubation, WST-1 reagent was added and absorbance was read at 450 nm with background subtraction taken at 650 nm. Values were normalized to the control (DMSO only treated) cells.

[1] = test system: HeLa cervical carcinoma cells
Method: as §1

RPMI-7951 melanoma cells = test system: RPMI-7951 melanoma cells
Method: as §1

HL-60 leukemic cells = test system: HL-60 leukemic cells
Method: as §1

[2] = test system: Jurkat T-cell leukemia cells
Method: as §1

SK-MEL-28 melanoma cells = test system: SK-MEL-28 melanoma cells
Method: as §1

| SMILES | Cell Viability (% of Vehicle) A375 (A375 melanoma cells) | Cell Viability (% of Vehicle) HeLa [1] | Cell Viability (% of Vehicle) RPMI-7951 (RPMI-7951 melanoma cells) | Cell Viability (% of Vehicle) HL-60 (HL-60 leukemic cells) | Cell Viability (% of Vehicle) Jurkat [2] | Cell Viability (% of Vehicle) SK-MEL-28 (SK-MEL-28 melanoma cells) |
| --- | --- | --- | --- | --- | --- | --- |
| CCOc1ccc(/C=C2\SC(=O)N(CCN(C)C)C2=O)cc1 [Compound 24a, (Z)-3-(2-(dimethylamino)ethyl)-5-(4-ethoxybenzylidene)thiazolidine-2,4-dione] | 115 ± 2 % of Vehicle | 90 ± 5 % of Vehicle | 130 ± 4 % of Vehicle | 110 ± 14 % of Vehicle | 95 ± 1 % of Vehicle | 101 ± 0.3 % of Vehicle |
| CCOc1ccc(/C=C/C(=O)NCCN)cc1 [Compound 20, (E)-N-(2-aminoethyl)-3-(4-ethoxyphenyl)acrylamide] | 81 ± 5 % of Vehicle | 94 ± 5 % of Vehicle | 93 ± 9 % of Vehicle | 59 ± 25 % of Vehicle | 89 ± 7 % of Vehicle | 83 ± 4 % of Vehicle |
| CCOc1ccc(/C=C2\SC(=O)N(CCNC(C)=O)C2=O)cc1 [Compound 25a, (Z)—N-(2-(5-(4-ethoxybenzylidene)-2,4-dioxothiazolidin-3-yl)ethyl)acetamide] | 121 ± 4 % of Vehicle | 100 ± 11 % of Vehicle | 124 ± 5 % of Vehicle | 106 ± 23 % of Vehicle | 105 ± 8 % of Vehicle | 105 ± 2 % of Vehicle |
| CCOc1ccc(CC2SC(=O)N(CCN)C2=O)cc1 (stereo not drawn) [Compound 6, 3-(2-aminoethyl)-5-(4-ethoxybenzyl)thiazolidine-2,4-dione] | 92 ± 6 % of Vehicle | 90 ± 4 % of Vehicle | 70 ± 5 % of Vehicle | 41 ± 17 % of Vehicle | 108 ± 10 % of Vehicle | 88 ± 3 % of Vehicle |
| CCOc1ccc(/C=C2\SC(=O)N(CCN(Cc3ccc(C#N)cc3)Cc3cccc(C#N)c3)C2=O)cc1 [Compound 24c, (Z)-3-(((4-cyanobenzyl)(2-(5-(4-ethoxybenzylidene)-2,4-dioxothiazolidin-3-yl)ethyl)amino)methyl)benzonitrile] | 115 ± 1 % of Vehicle | 97 ± 8 % of Vehicle | 108 ± 9 % of Vehicle | 108 ± 16 % of Vehicle | 100 ± 2 % of Vehicle | 107 ± 3 % of Vehicle |
| CCOc1ccc(/C=C2\SC(=O)N(Cc3cccc(C(=O)O)c3)C2=O)cc1 [Compound 28r, (Z)-3-((5-(4-ethoxybenzylidene)-2,4-dioxothiazolidin-3-yl)methyl)benzoic acid] | 59 ± 1 % of Vehicle | 75 ± 4 % of Vehicle | 83 ± 6 % of Vehicle | 41 ± 22 % of Vehicle | 80 ± 3 % of Vehicle | 83 ± 7 % of Vehicle |
